Laboratory results published in patent US20100297042A1, “Cosmetic Compositions and Methods Comprising Rhodiola Rosea” (priority 2004, published 2010).

Test system: living skin equivalents (LSE)
Experiment: TT dimer immunostaining (DNA damage/repair) in UVB-irradiated living skin equivalents
Format: cell-based
Settings: pre-treated 0.01% (PBS) 18 hours; 24 hours after 175 mJ of UVB
Experimental: Excised portions (8 mm) are taken from living skin equivalents (LSE) and cultured over transwell membrane plates. These excised portions are pre-treated with rosavin or salidroside at 0.01% (PBS) for 18 hours. After the […], these excised portions are UVB-irradiated at 0 and 175 mJ/cm^2. One set of LSEs is immediately fixed in formalin to determine TT dimer formation (DNA damage). Following a 24-hour post-incubation, another set of skin equivalents is fixed in formalin. These samples are then prepared for TT dimer immunostaining. Sections are then evaluated using a microscope at 400× magnification. A section is selected from each sample and TT dimer containing cells are evaluated. DNA damage is measured by examining TT dimer stained cells immediately after UVB irradiation. DNA repair (TT dimer removal) in UVB-irradiated LSEs is determined by comparing the levels of TT dimer at 0 hr (immediately after UVB) with the levels of TT dimer at 24 hours (24 hours after UVB).

| Structure (SMILES) | TT dimer levels [%] |
| --- | --- |
| OC[C@H]1O[C@@H](OCCc2ccc(O)cc2)[C@H](O)[C@@H](O)[C@@H]1O [salidroside, hydroxyphenylethanol-2-D-glucopyranoside] | 12 |
| O[C@@H]1[C@@H](O)[C@@H](OC/C=C/c2ccccc2)O[C@H](CO[C@@H]2OC[C@H](O)[C@H](O)[C@H]2O)[C@H]1O [rosavin, cinnamyl alcohol vicyanoside rosavin] | 7 |
